Measured values reported in patent US8124623B2, “5-hydroxymethyl-oxazolidin-2-one-derivatives and their uses as antibacterials” (Actelion Pharmaceuticals Ltd., priority 2006, dated 2012).
Values after ≈ are worked out from the molar mass of the structure shown.

Legend:
[1] = tested on: Bacteroides fragilis A-992 ATCC 25285; assay: MIC, particular anaerobic bacterial strains; assay type: cell-based; conditions: ATCC25285
[2] = tested on: Bacteroides thetaiotaomicron A-990 ATCC 29741; assay: microbe, parasite or virus in culture; assay type: cell-based; conditions: ATCC29741
[3] = tested on: Eubacterium limosum A-1259 DSM 20698; assay: MIC, particular anaerobic bacterial strains; assay type: cell-based
[4] = tested on: Finegoldia magna A-1254 DSM 20470; assay: MIC, particular anaerobic bacterial strains; assay type: cell-based
[5] = tested on: Lactobacillus acidophilus A-1255 DSM 20079; assay: MIC, particular anaerobic bacterial strains; assay type: cell-based
[6] = tested on: Lactococcus lactis A-1256 DSM 20069; assay: MIC, particular anaerobic bacterial strains; assay type: cell-based
[7] = tested on: C. difficile strain NC13366; assay type: cell-based; conditions: 1 and 8 μg/mL, day 5 vs day 1, high density stationary phase cultures
[8] = tested on: C. difficile strain NC13366; assay type: cell-based; conditions: treated cultures compared to the untreated control, day 5
[9] = tested on: toxigenic C. difficile strain 10465; assay: C. difficile hamster model; assay type: in vivo, Golden Syrian hamsters
Protocol: Golden Syrian hamsters were given a single injection of clindamycin phosphate (10 mg/kg s.c.), and a day later animals were infected by gavage with 10^5 CFU of toxigenic C. difficile strain 10465. A fulminant colitis results in the majority (˜95%) of animals and develops 1 to 2 days after the administration of C. difficile. Untreated, the colitis progresses rapidly and turns into severe colitis, hemorrhagic necrosis of the cecum and death. The compound of Example 1 was administered orally as a suspension at three dosage levels (10 mg/kg, 30 mg/kg and 100 mg/kg; n=10 per group). Vancomycin (50 mg/kg) was used as a control. Animals were treated once daily for 5 days and afterwards maintain under observation for an additional 21 days.
The animals were observed three times daily for morbidity and presence or absence of diarrhoea. The final endpoint of the study was survival. Animals judged to be in a moribund state [extended period of weight loss progressing to an emaciated state, anorexia for 24-48 h, prolonged lethargy (more than 3 days), signs of paralysis, skin erosions or trauma, hunched posture, distended abdomen] were euthanized by a single injection of sodium pentobarbital.

[10] = tested on: S. aureus A798; assay: MIC, broth microdilution (NCCLS); assay type: cell-based; conditions: Staphylococcus aureus, A798; read-out: MIC S. aureus A798
Protocol: These assays have been performed following the description given in “Methods for dilution Antimicrobial Susceptibility Tests for Bacteria that Grow Aerobically, 4th ed.; Approved standard: NCCLS Document M7-A4; National Committee for Clinical Laboratory Standards Villanova, Pa., USA, 1997”. Minimal inhibitory concentrations (MICs; mg/l) were determined in cation-adjusted Mueller-Hinton Broth (BBL) by a microdilution method following NCCLS guidelines (National Committee for Clinical Laboratory Standards. Methods for Dilution Antimicrobial Susceptibility). The pH1 of the test medium was 7.2-7.3. In the particular case wherein the compound to be tested is a compound of formula IPDc wherein at least one of R^1 and R^2 represents OPO3H2, then the test was carried out in the presence of human alkaline phosphatase (concentration: 1 U/mL). In the particular case wherein the compound to be tested is a compound of formula IPDG wherein R^1 represents a group OCOR^5, then the test may be carried out in the presence of 50% human serum.

[11] = tested on: C. difficile ATCC 43596; assay: MIC, anaerobic broth microdilution, reference strains; assay type: cell-based, Clostridium difficile; conditions: Clostridioides difficile, ATCC43596, 48 h, read-out: MIC regarding C. difficile ATCC 43596
[12] = tested on: C. difficile ATCC 9689; assay: as above; assay type: cell-based, Clostridium difficile; conditions: Clostridioides difficile, ATCC9689, 48 h, read-out: MIC regarding C. difficile ATCC 9689
[13] = tested on: C. difficile NC 13366; assay: as above; assay type: cell-based, Clostridium difficile; conditions: Clostridioides difficile, NC13366, 48 h, read-out: MIC regarding C. difficile NC 13366
[14] = tested on: C. perfringens DSM 756; assay: microbe, parasite or virus in culture; assay type: cell-based; conditions: Clostridium perfringens, DSM756, 48 h, read-out: MIC regarding C. perfringens DSM 756
[15] = 10 mg/kg orally once daily for 5 days
[16] = 30 mg/kg orally once daily for 5 days

O=C(O)c1cn(C2CC2)c2cc(N3CCC(O)(COc4ccc(N5C[C@H](CO)OC5=O)cc4F)CC3)c(F)cc2c1=O [Example 1, 1-cyclopropyl-6-fluoro-7-{4-[2-fluoro-4-((R)-5-hydroxymethyl-2-oxo-oxazolidin-3-yl)-phenoxymethyl]-4-hydroxy-piperidin-1-yl}-4-oxo-1,4-dihydro-quinoline-3-carboxylic acid]
MIC [1]: 8 µg/mL (≈ 13.7 µM) | MIC [2]: 8 µg/mL (≈ 13.7 µM) | less activity than compound of Example 5 of WO 2005/058888 (R1) [3]: 4 times | less activity than compound of Example 5 of WO 2005/058888 (R1) [4]: 4 times | less activity than compound of Example 5 of WO 2005/058888 (R1) [5]: 8 times | less activity than compound of Example 5 of WO 2005/058888 (R1) [6]: 8 times | de novo toxin A production in supernatants [7]: inhibited de novo toxin A production | reduction of toxin B activity of culture supernatants [8]: > 90% | animals surviving the 5 day treatment period [9, 15]: all animals | animals surviving the relapse phase of 21 days after treatment [9, 15]: 40% | animals surviving the 5 day treatment period [9, 16]: all animals | animals surviving the relapse phase of 21 days after treatment without relapse [9, 16]: 80% | animals surviving the 5 day treatment period ([9]; 100 mg/kg orally once daily for 5 days): all animals

O=C(O)c1cn(C2CC2)c2cc(N3CCC(O)(COc4ccc(N5C[C@H](CO)OC5=O)cc4F)C3)c(F)cc2c1=O (mixture of isomers) [Example 6, 1-cyclopropyl-6-fluoro-7-{(RS)-3-[2-fluoro-4-((R)-5-hydroxymethyl-2-oxo-oxazolidin-3-yl)-phenoxymethyl]-3-hydroxy-pyrrolidin-1-yl}-4-oxo-1,4-dihydro-quinoline-3-carboxylic acid]
MIC [10]: 1 µg/mL | MIC [11]: 0.25 µg/mL | MIC [12]: 0.5 µg/mL | MIC [13]: 0.25 µg/mL | MIC [14]: 0.125 µg/mL
